Target: PCP receptor
Test: [3H]TCP radioreceptor assay (binding to PCP recognition sites)
Design: species or system rat (male Sprague-Dawley, whole brain)
Settings: [3H]TCP approx. 1 nM, rat brain membranes; mean of at least two determinations
Method: [^3 H]TCP Radioreceptor Assay
[^3 H]TCP binding to PCP recognition sites was performed as described by Vignon et al. Brain Research 1983, 280, 194-197. Male Sprague-Dawley rats were sacrificed by decapitation, and whole brains were homogenized in 10 volumes (wt/vol) of cold Tris-HCl buffer (50 mM, pH 7.7) using a Brinkmann Polytron (setting 6, 30 sec). The homogenate was centrifuged at 40,000×g for 10 min at 4° C. The supernatant was decanted, and the homogenization and centrifugation steps were repeated twice as described above. Following this, the pellet was resuspended in Tris-HCl (5 mM, pH 7.7) at a tissue concentration of 0.5-0.75 g/mL, and one mL aliquots were frozen at -70° C. until use. The binding characteristics for PCP recognition sites were not altered by the freezing of membrane suspensions.
On the day of the assay, membrane aliquots were thawed, resuspended in fresh 5 mM Tris-HCl buffer at a tissue concentration of 1 mg/mL, and stored on ice until use. Each assay tube contained 100 μl of [^3 H]TCP at a final concentration of approximately 1 nM, 100 μL of various concentrations of the compounds of interest, 500 μL of the tissue suspension and 300 μL of buffer to a final assay volume of 1 mL and a final protein concentration of 0.5 mg/tube. Non-specific binding was defined by addition of a final concentration of 100 μM PCP to blank tubes. All tubes were incubated at room temperature for 25 min before termination of the reaction by rapid filtration over Whatman GF/B glass fiber filters that had been presoaked in a solution of 0.5% polyethylenimine for at least 1 hr prior to use. Filters were washed with three 4 mL volumes of cold Tris buffer. Following addition of scintillation cocktail, the amount of bound radioactivity was determined by liquid scintillation spectrometry using a Beckman LS 5000TA liquid scintillation counter with an efficiency for tritium of approximately 55%. Inhibition constants (Ki values) were calculated using the EBDA/LIGAND program (McPherson, J. Pharmacol. Meth. 1985, 14, 213-228), purchased from ElsevierBiosoft, Inc. Results are reported as the Ki values (in nM) which are expressed as the mean of at least two separate determinations; or as a percent (%) inhibition of binding at 10 μM.

Row | Structure (SMILES) | Ki [nM]
1 | Oc1c(Cl)ccc2c1C1c3cccc[n+]3C2CC1(c1ccoc1)c1ccoc1 (centres unmarked) [188(c), 6,11-ethano-12,12-di(3-furyl)-9-chloro-10-hydroxy-6,11-dihydrobenzo]b]quinolizinium chloride] | 23.6
2 | Oc1ccc[n+]2c1C1c3ccccc3C2CC1(c1ccoc1)c1ccoc1 (centres unmarked) [Example 168(c), 6,11-ethano-12,12-di(3-furyl)-1-hydroxy-6,11-dihydrobenzo[b]quinolizinium chloride] | 306
3 | CCOC(=O)C=CC(=O)Oc1cccc2c1C1c3cccc[n+]3C2CC1(c1ccoc1)c1ccoc1 (centres unmarked) [167(c), 6,11-ethano-12,12-di(3-furyl)-10-(OC(O)CH=CHCO2 Et)-6,11-dihydrobenzo[b]quinolizinium perchlorate] | 7.68
4 | c1ccc2c(c1)C1CC(c3cnn[nH]3)(c3cnn[nH]3)C2c2cccc[n+]21 (centres unmarked) [70(F), 6,11-ethano-12.12-di-(5-1,2,3-triazoyl)6,11-dihydrobenzo[b]quinolizinium Chloride] | 3830
5 | [O-][Cl+3]([O-])([O-])[O-].c1ccc(C2(N3CCOCC3)CC3c4ccccc4C2c2cccc[n+]23)cc1 (centres unmarked) [111(b), 6,11-Ethano-12-phenyl-12-(4-morpholinyl)-6,11-dihydrobenzo[b]quinolizinium perchlorate] | 37.8
6 | Oc1cccc2c1C1c3cccc[n+]3C2CC1(c1ccccc1)c1ccccc1 (centres unmarked) [28(c), 6,11-ethano-12,12-diphenyl-10-hydroxy-6,11-dihydrobenzo[b]quinolizinium chloride] | 11.7
7 | CCOC(=O)CC(C)(C)C(=O)Oc1cccc2c1C1c3cccc[n+]3C2CC1(c1ccoc1)c1ccoc1 (centres unmarked) [178(d), 6,11-ethano-12,12-di(3-furyl)-10-(OC(O)C(CH3)2 CH2 CO2Et)-6,11-dihydrobenzo[b]quinolizinium chloride] | 1430
8 | Fc1ccc(C2(c3ccc(F)cc3)CC3c4ccccc4C2c2cccc[n+]23)cc1 (centres unmarked) [31(c), 6,11-ethano-12,12-di(p-fluorophenyl)-6,11-dihydrobenzo[b]-quinolizinium chloride] | 2210
9 | COc1cccc2c1C1c3cccc[n+]3C2CC1(c1ccoc1)c1ccoc1 (centres unmarked) [66(g), 6,11-ethano-12,12-di(3-furanyl)-10-methoxy-6,11-dihydrobenzo[b]quinolizinium chloride] | 6
10 | CCCCCCCC(=O)Oc1cccc2c1C1c3cccc[n+]3C2CC1(c1ccoc1)c1ccoc1 (centres unmarked) [Example 165, 6,11-ethano-12,12-di(3-furyl)-10-octanoyloxy-6,11-dihydrobenzo[b]quinolizinium chloride] | 31.3
11 | CCOC1(c2ccoc2)C2c3ccccc3C(C1C)[n+]1ccccc12 (single isomer, unassigned) [65(c), 6,11-ethano-12-(3-furyl)-12-ethoxy-13-methyl-6,11-dihydrobenzo[b]quinolizinium hexafluorophosphate] | 2.8
12 | Oc1cccc2c1C1c3cccc[n+]3C2CC1(c1cc[nH]n1)c1cc[nH]n1 (centres unmarked) [175(b)] | 119
13 | c1ccc(C2(c3ccccc3)C3c4ccccc4C([n+]4ccccc43)C23CC3)cc1 (centres unmarked) [22(b), 6,11-ethano-12,12-diphenyl-13,13-spirocyclopropyl-6,11-dihydrobenzo[b]quinolizinium chloride] | 9.07
14 | c1ccc2c(c1)C1C3CCc4occc4C3(c3cc4ccccc4o3)C2c2cccc[n+]21 (centres unmarked) [Example 10(c), 6,11[[5',4']-4'-(2-benzofuryl)-4',5',6',7'-tetrahydrobenzofuryl]6,11-dihydrobenzo[b]quinolizinium hexafluorophosphate] | 1100
15 | COc1ccc2c(c1)C1(c3ccccc3)C3c4ccccc4C(C1C2)[n+]1ccccc13 (centres unmarked) [3(d), 6,11[[2',3']-3'-phenyl-6'-methoxyindanyl]6,11-dihydrobenzo[b]quinoliziniumhexafluorophosphate] | 14.1
16 | COc1cccc(C23c4ccccc4CC2C2c4ccccc4C3c3cccc[n+]32)c1 (single isomer, unassigned) [5(d), 6,11[2',3']-3'-(3-methoxyphenyl)-indanyl]16,11-dihydrobenzo[b]quinolizinium hexafluorophosphate] | 22
17 | CC1C2c3ccccc3C(c3cccc[n+]32)C1(c1ccccc1)c1ccccc1 (centres unmarked) [Example 18, 6,11-ethanol-12,12-diphenyl-13-methyl-6,11-dihydrobenzo[b]quinolizinium perchlorate] | 19.5
18 | COc1cccc(C2(c3cccc(OC)n3)CC3c4ccccc4C2c2cccc[n+]23)n1.[O-][Cl+3]([O-])([O-])[O-] (centres unmarked) [67(e), 6,11-ethano-12,12-di-(6-methoxypyridin-2-yl)-6,11-dihydrobenzo[b]quinolizinium perchlorate] | 80
19 | Cc1cc[n+]2c(c1)C1c3ccccc3C2CC1(c1ccccc1)c1ccccc1.[O-][Cl+3]([O-])([O-])[O-] (centres unmarked) [54(E), 6,11-ethano-12,12-diphenyl-2-methyl-6,11-dihydrobenzo[b]quinolizinium perchlorate] | 52
20 | CCOC1(c2ccoc2)CC2(C)c3ccccc3C1c1cccc[n+]12 [13(b), 6,11-ethano-12-(3-furyl)-12-ethoxy-6-methyl-6,11-dihydrobenzo[b]quinolizinium monobenzoyl-D-tartarate] | 45
21 | Oc1cccc(C2(c3cccc(O)c3)CC3c4ccccc4C2c2cccc[n+]23)c1.[O-][Cl+3]([O-])([O-])[O-] (centres unmarked) [Example 177, 6,11-ethano-12,12-di(m-hydroxyphenyl)-6,11-dihydrobenzo[b]quinolizinium perchlorate] | 13.8
22 | CC(=O)Oc1cccc2c1C1c3cccc[n+]3C2CC1(c1ccoc1)c1ccoc1 (centres unmarked) [Example 169, 6,11-ethano-12,12-di(3-furyl)-10-acetyloxy-6,11-dihydrobenzo-[b]quinolizinium chloride] | 3.58
23 | [O-][Cl+3]([O-])([O-])[O-].c1ccc2c(c1)C1CC(c3cncs3)(c3cncs3)C2c2cccc[n+]21 (centres unmarked) [62(c), 6,11-ethano-12,12-di(5-thiazolyl)-6,11-dihydrobenzo[b]quinolizinium perchlorate] | 120
24 | COc1cccc2c1C1c3cccc[n+]3C2CC1(c1ccccc1)c1ccccc1 (centres unmarked) [Example 26, 6,11-ethano-12,12-diphenyl-10-methoxy-6,11-dihydrobenzo[b]quinolizinium chloride] | 32.7
25 | c1ccc2c(c1)C1CC(c3cc[nH]c3)(c3cc[nH]c3)C2c2cccc[n+]21 (centres unmarked) [71(F), 6,11-ethano-12,12-di(3-pyrrolyl)-6,11-dihydrobenzo[b]quinolizinium chloride] | 3.1
26 | Oc1cccc2c1C1c3cccc[n+]3C2CC1(c1cc[nH]c1)c1cc[nH]c1 (centres unmarked) [190(b), 6,11-ethano-12,12-di(3-pyrrolyl)-10-hydroxy-6,11-dihydrobenzo[b]quinolizinium chloride] | 10.7
27 | c1ccc2c(c1)C1C3CCc4occc4C3(c3cc4ccccc4o3)C2c2cccc[n+]21 (centres unmarked) [10(c-k), 6,11[[5',4']-4'-(2-benzofuryl)-4',5',6',7'-tetrahydro-benzofuryl]6,11-dihydrobenzo[b]quinolizinium hexafluorophosphate] | 696
28 | OCc1cccc2c1C1c3cccc[n+]3C2CC1(c1ccoc1)c1ccoc1.[O-][Cl+3]([O-])([O-])[O-] (centres unmarked) [182(e), 6,11-ethano-12,12-di(3-furyl)-10-hydroxymethyl-6,11-dihydrobenzo[b]quinolizinium perchlorate] | 159

Same assay, conditions: inhibition of [3H]TCP binding at 10 μM

Row | Structure (SMILES) | [3H]TCP percent inhibition @ 10 μm [%]
29 | FC(F)(F)c1cccc(C2(c3cccc(C(F)(F)F)c3)CC3c4ccccc4C2c2cccc[n+]23)c1.[Cl-] (centres unmarked) [46(c), 6,11-ethano-12,12-di(m-trifluoromethylphenyl)-6,11-dihydrobenzo[b]quinolizinium chloride] | 31
30 | Cc1ccc(S(=O)(=O)n2nccc2C2(c3ccoc3)CC3c4ccccc4C2c2cccc[n+]23)cc1.[Br-] (single isomer, unassigned) [Example 184(d), 6,11-ethano-12-(3-furyl)-12-[1-(p-toluenesulfonyl)pyrazol-5-yl]-6,11-dihydrobenzo[b]quinolizinium bromide] | 53
31 | [Cl-].c1ccc2c(c1)C1CC(c3ccncc3)(c3ccncc3)C2c2cccc[n+]21 (centres unmarked) [49(E), 6,11-ethano-12,12-di(4-pyridyl)-6,11-dihydrobenzo[b]quinolizinium chloride] | 54
32 | Brc1ccc(C2(c3ccc(Br)cc3)CC3c4ccccc4C2c2cccc[n+]23)cc1 (centres unmarked) [23(c), 6,11-ethano-12,12-di-p-bromophenyl-6,11-dihydrobenzo[b]quinolizinium chloride] | 22

Reference: patent US5554620A, “Substituted 6,11-ethano-6,11-dihydrobenzo[b] quinolizinium salts and compositions and methods of use thereof” (Sterling Winthrop Inc., priority 1994, dated 1996)
